Laboratory results from patent US20230241226A1, “COMPOUNDS FOR TARGETED DEGRADATION OF CARRIER PROTEINS AND USES THEREOF” (CeMM - Forschungszentrum für Molekulare Medizin GmbH, priority 2019, published 2023).

Tests used:
Format in all cases: cell-based
SLC9A1 = biological target: T1, SLC9A1 (Homo sapiens, UniProt P19634); assay: Degradation of endogenous SLC9A1 (immunoblot)
T1 construct: endogenous in cells; host or cells: HAP1, KBM7 (WT and CRBN knockout)
Procedure: (B) HAP1 and KBM7 cells were treated with different concentrations of d9A1-2.
(C)Both WT and CRBN knockout KBM7 cell lines were treated with 1 µM d9A1-2 for 16 hours.
(D) Chemical “rescue” of d9A1-2 driven degradation. WT KBM7 cell lines were treated with 0.5 µM d9A1-2 for 16 hours. These cells were also treated with bortezomib (bort. 0.25 µM), MG-132 (MG, 1 µM), MLN4924 (MLN,1 µM), pomalidomide (poma., 1 µM), or bafilomycin A1 (bafi., 10 µM). All molecules, apart from bafilomycin, could rescue SLC9A1 from degradation.
(B) HAP1 cells were treated with a dose curve of the warhead, d9A1-1, d9A1-2, d9A1-3, d9A1-4, for 24 hours.
(C) KBM7 cells were treated with varying concentrations of d9A1-2.
HEK293T, LS180 were obtained from ATCC (Manassas, VA, USA), HAP1 WT, HAP1 -/-SLC38A2 (HZGHC001975c003), HAP1 -/-SLC38A9 (HZGHC000777c011) were obtained from Horizon Genomics. Other cell lines utilized here: CAKI (a gift of Georg Winter’s lab), SW620, SW480 (both a gift from Walter Berger’s lab, Medical University Vienna), LOVO, HCT15 (both a gift from Chris Gasche), KBM7 (a gift from Thijn Brummelkamp’s lab), KBM7 -/- CRBN was described in Mayor-Ruiz et al. Cells were cultured, according to the ATCC recommendation in DMEM, RPMI or IMDM medium (Gibco) supplemented with 10% (v/v) FBS and antibiotics (100 U/ml penicillin and […] streptomycin). Knock-in single cell clones of dTAG-HA SLC38A2 HAP1 cell line were generated as previously described. For starvation, culture media was replaced with media without amino acids or FBS.
For immunoblotting, whole cell extracts were prepared using RIPA lysis buffer (25 mM Tris/HCl pH 7.6, 150 mM NaCl, 1% NP-40, 1% sodium deoxycholate, 0.1% SDS, EDTA-free protease inhibitor (Roche) and phosphatase inhibitors 2+3 (Sigma- Aldrich)). Cell extracts were incubated for 15 min on ice in 50 µL RIPA buffer. Lysates were cleared by centrifugation (20,000 g, 10 min, 4° C.). Protein extracts were quantified and normalized using the BCA assay (Thermo Scientific). Where indicated, cleared lysates where treated with the enzyme PNGase (NEB) to deglycosylate the proteins. Lämmli Sample Buffer 4x was added to protein extract samples without boiling. Cell lysates were run on SDS-polyacrylamide gel in tris-glycine running buffer and transferred to nitrocellulose membranes Amersham Protran 0.45 µm (GE Healthcare), according to standard methods. The membranes were incubated with the antibodies indicated below and visualized with horseradish peroxidase-conjugated secondary antibodies (described below) using the ECL Western blotting system (Thermo Scientific). The following antibodies were used: GAPDH (Santa Cruz, sc-365062), Actin (Cyoskeleton Inc., #AAN01), HA (Covance, cat #MMS-101R), HA (Cell Signaling, #3724), HA7-HRP (Sigma, H6533), HA (Roche, #11867423001), SLC9A1 (Santa Cruz, sc-136239), SLC2A1 (Cell Signaling, #12939), SLC38A1 (Cell Signaling, #36057). Secondary antibody for imaging goat anti-Rat IgG Alexa Fluor 488 (ThermoFisher, A11006). The following secondary antibodies were used for immunoblotting: goat anti-mouse HRP (115-035-003, Jackson ImmunoResearch) and goat anti-rabbit HRP (111-035-003, Jackson ImmunoResearch).
MG132, Bortezomib, Pomalidomide were obtained from Selleckchem. MLN4924 was obtained from MedchemExpress. Bafilomycin was obtained from Enzo Life Sciences. dTAG13 was a generous gift from the Nathanael Gray laboratory, Dana Farber Cancer Institute. The d9A1 degrader series (warhead, d9A1-1 to d9A1-4) was synthesized by Wuxi AppTec. All chemicals were dissolved in DMSO (Sigma-Aldrich) and utilized at the concertation described in respective figures.

Strep/HA SLC9A3 = biological target: T2, Strep/HA SLC9A3 (Homo sapiens, UniProt P48764); assay: Selectivity across SLC9 family: degradation of exogenous Strep/HA SLC9A3; conditions: HAP1; 250 or 750 nM; 16 hours
T2 construct: expressed in transfected cells; host or cells: HAP1 (lentiviral, pRRL Strep-HA; cDNA synthesized by Genescript)
Procedure: (§1) (E) Selectivity of d9A1-2 was tested across HAP1 cell lines expressing Strep/HASLC9A1, 9A4, 9A5, 9A8, 9A2, 9B2, 9A6, 9A9, and 9A3. Cells were treated with varying concentrations of d9A1-2 for 16 hours, after which degradation of the exogenous SLCs was monitored.
(§2) SLC1A5, SLC2A1, SLC2A3, SLC16A1, SLC38A1, SLC38A2 were obtained as gateway-compatible pENTR/pDONR vectors from the Harvard PlasmID Repository. SLC39A7 was obtained from Dharmacon, GE Healthcare. The following vectors were synthesized by Genescript: SLC4A4, SLC7A3, SLC38A9, SLC25A1, SLC9A1, SLC9A2, SLC9A3, SLC9A4, SLC9A5, SLC9A6, SLC9A7, SLC9A8, and SLC9B2. SLC30A9, SLC33A1, SLC35B2, SLC25A26, and MTCH2 were a gift from the RESOLUTE consortium. cDNAs were transferred into gateway-compatible lentiviral expression vectors: pLX305 dTAG vectors (Addgene #91797/8) or pRRL Strep-HA (described previously43, EF1a promotor driven expression) using LR recombination (ThermoFisher Scientific). […]
(§3) For immunoblotting, whole cell extracts were prepared using RIPA lysis buffer (25 mM Tris/HCl pH 7.6, 150 mM NaCl, 1% NP-40, 1% sodium deoxycholate, 0.1% SDS, EDTA-free protease inhibitor (Roche) and phosphatase inhibitors 2+3 (Sigma- Aldrich)). […] Protein extracts were quantified and normalized using the BCA assay (Thermo Scientific). […]

Strep/HA SLC9A8 = biological target: T3, Strep/HA SLC9A8 (Homo sapiens, UniProt Q9Y2E8); assay: Selectivity across SLC9 family: degradation of exogenous Strep/HA SLC9A8; conditions: HAP1; 250 or 750 nM; 16 hours
T3 construct: expressed in transfected cells; host or cells: HAP1 (lentiviral, pRRL Strep-HA; cDNA synthesized by Genescript)
Procedure: as §1, §2, §3

T1 sequence (P19634 whole entry): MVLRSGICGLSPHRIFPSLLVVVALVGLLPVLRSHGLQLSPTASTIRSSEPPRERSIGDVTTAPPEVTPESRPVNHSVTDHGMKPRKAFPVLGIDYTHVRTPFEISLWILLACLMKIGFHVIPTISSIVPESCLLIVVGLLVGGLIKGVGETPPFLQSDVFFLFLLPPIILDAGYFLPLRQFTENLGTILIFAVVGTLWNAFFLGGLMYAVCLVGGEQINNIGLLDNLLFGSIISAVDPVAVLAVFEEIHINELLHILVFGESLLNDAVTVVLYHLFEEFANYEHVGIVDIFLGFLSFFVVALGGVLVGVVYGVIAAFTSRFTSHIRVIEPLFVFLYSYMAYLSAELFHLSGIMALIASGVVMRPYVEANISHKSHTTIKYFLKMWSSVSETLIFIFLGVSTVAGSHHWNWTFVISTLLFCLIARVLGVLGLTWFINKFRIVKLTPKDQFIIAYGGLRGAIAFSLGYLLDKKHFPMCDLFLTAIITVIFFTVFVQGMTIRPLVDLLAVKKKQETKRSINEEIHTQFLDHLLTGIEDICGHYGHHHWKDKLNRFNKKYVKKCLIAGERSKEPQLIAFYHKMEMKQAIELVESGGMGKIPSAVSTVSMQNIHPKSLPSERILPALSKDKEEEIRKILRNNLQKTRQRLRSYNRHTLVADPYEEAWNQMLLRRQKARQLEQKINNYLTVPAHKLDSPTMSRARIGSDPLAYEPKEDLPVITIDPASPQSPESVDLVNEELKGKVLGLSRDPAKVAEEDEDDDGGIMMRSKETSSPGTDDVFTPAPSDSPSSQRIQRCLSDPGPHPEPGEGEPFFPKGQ
T2 sequence (P48764 26-834): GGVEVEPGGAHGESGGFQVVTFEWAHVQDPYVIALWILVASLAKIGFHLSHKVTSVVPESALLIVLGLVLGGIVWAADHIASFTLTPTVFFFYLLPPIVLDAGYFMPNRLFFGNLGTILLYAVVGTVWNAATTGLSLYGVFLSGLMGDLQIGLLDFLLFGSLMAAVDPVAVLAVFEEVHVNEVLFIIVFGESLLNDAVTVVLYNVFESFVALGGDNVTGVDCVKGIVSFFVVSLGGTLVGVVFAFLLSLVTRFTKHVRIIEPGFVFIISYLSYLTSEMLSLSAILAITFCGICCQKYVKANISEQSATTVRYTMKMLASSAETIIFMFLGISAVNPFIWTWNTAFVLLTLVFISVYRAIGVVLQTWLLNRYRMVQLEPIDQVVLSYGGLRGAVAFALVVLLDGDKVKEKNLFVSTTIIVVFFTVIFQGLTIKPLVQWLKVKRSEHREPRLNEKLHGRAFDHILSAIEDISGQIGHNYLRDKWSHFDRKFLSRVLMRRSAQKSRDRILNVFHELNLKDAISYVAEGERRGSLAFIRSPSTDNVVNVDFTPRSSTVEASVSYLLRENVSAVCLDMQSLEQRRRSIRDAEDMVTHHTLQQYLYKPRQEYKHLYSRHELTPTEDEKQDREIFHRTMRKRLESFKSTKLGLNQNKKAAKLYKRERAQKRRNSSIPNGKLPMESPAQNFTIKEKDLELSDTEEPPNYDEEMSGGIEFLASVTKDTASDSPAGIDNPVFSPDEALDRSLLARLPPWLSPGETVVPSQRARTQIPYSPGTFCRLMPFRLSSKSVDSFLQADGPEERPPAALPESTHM
T3 sequence (Q9Y2E8 whole entry): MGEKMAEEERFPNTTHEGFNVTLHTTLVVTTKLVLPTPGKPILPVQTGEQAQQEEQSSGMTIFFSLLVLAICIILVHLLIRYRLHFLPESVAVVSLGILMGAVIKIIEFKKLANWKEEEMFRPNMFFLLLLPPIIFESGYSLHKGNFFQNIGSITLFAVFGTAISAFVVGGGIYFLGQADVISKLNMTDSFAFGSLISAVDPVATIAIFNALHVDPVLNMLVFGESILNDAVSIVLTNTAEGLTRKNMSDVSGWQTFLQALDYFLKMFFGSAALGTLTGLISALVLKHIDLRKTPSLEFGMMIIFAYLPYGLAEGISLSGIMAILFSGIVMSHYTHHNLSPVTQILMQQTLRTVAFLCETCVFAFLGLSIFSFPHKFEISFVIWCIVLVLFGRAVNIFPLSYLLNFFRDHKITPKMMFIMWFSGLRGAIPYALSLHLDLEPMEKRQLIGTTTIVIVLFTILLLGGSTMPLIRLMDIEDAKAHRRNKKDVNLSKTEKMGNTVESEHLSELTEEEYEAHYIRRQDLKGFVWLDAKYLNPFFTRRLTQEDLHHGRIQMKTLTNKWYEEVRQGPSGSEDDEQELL

- time within which degradation of SLC9A1 was observed (SLC9A1; HAP1 and KBM7 cells, different concentrations): ≤ 8 h
- SLC9A1 degradation, dose curve (SLC9A1; HAP1 cells, 24 hours): most effective
- SLC9A1 degradation in WT and CRBN knockout cells (SLC9A1; KBM7 WT and CRBN knockout, 1 µM, 16 hours): observed in WT but not CRBN knockout
- abundance of exogenous SLC9A3 (Strep/HA SLC9A3): not significantly affected
- abundance of exogenous SLC9A8 (Strep/HA SLC9A8): not significantly affected
SMILES: Cc1cc(-c2ccc(C(=O)NCCOCCOCCOCCOCCNc3cccc4c3C(=O)N(C3CCC(=O)NC3=O)C4=O)cc2N2CCC(c3[nH]cnc3C)CC2)ccc1F (stereo not shown) [d9A1-2]
- degradation of endogenous SLC9A1 (SLC9A1; HAP1 and KBM7 cells): degradation of endogenous SLC9A1 at sub-micromolar concentration
- SLC9A1 expression, time course (SLC9A1; KBM7 cells, varying concentrations, 5, 7, 9 or 12 hours): Reduction of SLC9A1 expression was observed
